Test results: patent publication US12071411B2, “Inhibitors of HIF-2α and methods of use thereof” (ARCUS BIOSCIENCES, INC., priority 2021, dated 2024)
pIC50: −log10 of the molar value.

Assays:
[1] = molecular target: T1, Biotin tagged HIF-2α protein containing PAS-B domain (240-350) (Homo sapiens, UniProt Q99814); assay: HIF-2α Scintillation Proximity Assay (SPA) binding assay; settings: 50 nM HIF-2α protein, 25 nM 3H-tracer, 2% DMSO
T1 construct: Biotin tagged HIF-2α protein containing PAS-B domain (240-350) was prepared and purified in-house; made in house
Protocol: HIF-2α Scintillation Proximity Assay (SPA) Binding Assay:
Biotin tagged HIF-2α protein containing PAS-B domain (240-350) was prepared and purified in-house.
Compounds solubilized in DMSO were dispensed into a white 384-well polystyrene non-binding flat clear bottom plate (Greiner Bio-One, Cat #781903) using an HP D300 dispenser. Ten microliters of biotinylated HIF-2α protein in buffer (25 mM Tris-HCl, pH 7.4, 150 mM NaCl, 0.15% BSA and 0.001% Tween 20) was added to the compound wells and allowed to incubate for 1 hour at room temperature. Ten microliters of SPA bead mix were added to the wells and incubated for an additional 45 minutes, followed by 10 ul of ^3H-tracer solution. Final assay conditions comprised 50 nM HIF-2α protein, 25 nM radiolabeled tracer and 3 ug beads per well with compounds in 2% DMSO. The plate was read using a MicroBeta Microplate Counter (PerkinElmer) for luminescence detection. The IC50 values of the test compounds were determined from compound dose response curves fitted using a standard four parameter fit equation and are reported in Table 2.

HIF-2α [2] = molecular target: T2, HIF-2α (Homo sapiens, UniProt Q99814); assay: HIF-2α Luciferase Reporter Assay (serum free) in HIF-Luc-786-0 cells; format: cell-based; settings: Opti-MEM, 786-0 reporter cells, 20 hours incubation
How it was run: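 786-0 cells stably transduced with HIF luciferase reporter, 20,000 cells/well in serum-free Opti-MEM, compounds (50 uM downward, 1% DMSO) 20 h at 37 °C. ONE-Glo luminescence normalized to DMSO and no-cell controls; IC50 from four-parameter fit.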

HIF-2α [3] = molecular target: T2, HIF-2α; assay: HIF-2α Luciferase Reporter Assay (serum), HRE-luciferase 786-0 cells in 100% human serum; format: cell-based; settings: for pIC50: 100% human serum, 786-0 reporter cells, overnight incubation, read-out: Serum Potency; for Serum Shift (approximate): ratio of IC50 in 100% serum to IC50 in serum free conditions
How it was run: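 786-0 cells stably expressing an HRE-luciferase reporter were plated and rested 3 h. They were then treated overnight at 37 °C with compound diluted in 100% human serum. Serum was replaced with Opti-MEM, ONE-Glo luminescence was read, and IC50 came from a 4-parameter logistic fit.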

T2 sequence (Q99814 whole entry): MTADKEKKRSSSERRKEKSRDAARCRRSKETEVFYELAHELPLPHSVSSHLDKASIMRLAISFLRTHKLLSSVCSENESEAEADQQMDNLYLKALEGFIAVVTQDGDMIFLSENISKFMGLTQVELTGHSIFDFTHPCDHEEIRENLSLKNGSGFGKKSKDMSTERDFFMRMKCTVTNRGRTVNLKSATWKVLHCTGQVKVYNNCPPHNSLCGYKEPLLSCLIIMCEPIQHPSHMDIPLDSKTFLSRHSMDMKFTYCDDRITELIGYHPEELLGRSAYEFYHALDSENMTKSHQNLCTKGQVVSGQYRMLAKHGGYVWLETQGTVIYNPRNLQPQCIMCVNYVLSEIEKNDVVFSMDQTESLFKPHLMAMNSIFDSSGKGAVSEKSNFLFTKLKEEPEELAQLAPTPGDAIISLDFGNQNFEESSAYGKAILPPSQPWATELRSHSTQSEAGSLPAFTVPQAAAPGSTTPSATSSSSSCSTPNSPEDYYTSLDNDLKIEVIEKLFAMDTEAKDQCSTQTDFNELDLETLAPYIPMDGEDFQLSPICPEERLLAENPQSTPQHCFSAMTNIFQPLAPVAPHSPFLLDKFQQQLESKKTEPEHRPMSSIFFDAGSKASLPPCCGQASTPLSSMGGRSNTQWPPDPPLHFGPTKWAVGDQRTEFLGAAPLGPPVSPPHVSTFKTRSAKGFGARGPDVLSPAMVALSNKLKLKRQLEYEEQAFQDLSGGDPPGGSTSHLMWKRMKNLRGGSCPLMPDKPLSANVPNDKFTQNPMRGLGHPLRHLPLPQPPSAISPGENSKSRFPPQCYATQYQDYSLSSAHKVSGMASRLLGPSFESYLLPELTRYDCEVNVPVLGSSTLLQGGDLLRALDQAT
T1 sequence (Q99814 240-350): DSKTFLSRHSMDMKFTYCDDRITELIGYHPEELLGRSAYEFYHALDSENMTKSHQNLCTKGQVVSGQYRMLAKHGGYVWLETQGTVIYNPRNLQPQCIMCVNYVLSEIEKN

| Compound | pIC50 [1] | pIC50 (HIF-2α [2]) | pIC50 (HIF-2α [3]) | Serum Shift (approximate) (HIF-2α [3]) |
| --- | --- | --- | --- | --- |
| CC(F)(F)CCn1nc(C(F)(F)F)c2c1CCC(F)(F)[C@H]2O [Example 32, (4S)-1-(3,3-difluorobutyl)-5,5-difluoro-3-(trifluoromethyl)-6,7-dihydro-4H-indazol-4-ol] | 6.00 to 7.00 | > 7.00 | 6.00 to 7.00 | 10 |
| O[C@H]1c2c(C(F)(F)F)nn(CC3CC(F)(F)C3)c2CCC1(F)F [Example 2, (4S)-1-[(3,3-difluorocyclobutyl)methyl]-5,5-difluoro-3-(trifluoromethyl)-6,7-dihydro-4H-indazol-4-ol] | 6.00 to 7.00 | 6.00 to 7.00 | < 6.00 | 13 |
| O[C@H]1c2c(C(F)(F)F)nn(CCOC(F)(F)F)c2CCC1(F)F [Example 60, (4S)-5,5-difluoro-1-[2-(trifluoromethoxy)ethyl]-3-(trifluoromethyl)-6,7-dihydro-4H-indazol-4-ol] | < 6.00 | < 6.00 | < 6.00 | 3 |
| O[C@H]1c2c(C(F)(F)F)nn(CCC3CC(F)(F)C3)c2CCC1(F)F [Example 44, (4S)-1-[2-(3,3-difluorocyclobutyl)ethyl]-5,5-difluoro-3-(trifluoromethyl)-6,7-dihydro-4H-indazol-4-ol] | 6.00 to 7.00 | 6.00 to 7.00 | < 6.00 | 6 |
| CC(C)CCn1nc(C(F)(F)F)c2c1CCC(F)(F)[C@H]2O [Example 40, (4S)-5,5-difluoro-1-(3-methylbutyl)-3-(trifluoromethyl)-6,7-dihydro-4H-indazol-4-ol] | 6.00 to 7.00 | 6.00 to 7.00 | < 6.00 | 31 |
| CC(CCn1nc(S(C)(=O)=O)c2c1CCC(F)(F)[C@H]2O)C(F)(F)F (stereo partly drawn) [Example 50, (4S)-5,5-difluoro-3-methylsulfonyl-1-(4,4,4-trifluoro-3-methylbutyl)-6,7-dihydro-4H-indazol-4-ol] | < 6.00 | < 6.00 |  |  |
| CS(=O)(=O)CCn1nc(C(F)(F)F)c2c1CCC(F)(F)[C@H]2O [Example 42, (4S)-5,5-difluoro-1-(2-methylsulfonylethyl)-3-(trifluoromethyl)-6,7-dihydro-4H-indazol-4-ol] | 6.00 to 7.00 | 6.00 to 7.00 | < 6.00 | 6 |
| O[C@H]1c2c(C(F)(F)F)nn(CCC3(F)COC3)c2CCC1(F)F [Example 21, (4S)-5,5-difluoro-1-[2-(3-fluorooxetan-3-yl)ethyl]-3-(trifluoromethyl)-4,5,6,7-tetrahydro-1H-indazol-4-ol] | 6.00 to 7.00 | 6.00 to 7.00 | < 6.00 | 3 |
| O[C@H]1c2c(C(F)(F)F)nn(CCCC(F)(F)F)c2CCC1(F)F [Example 41, (4S)-5,5-difluoro-1-(4,4,4-trifluorobutyl)-3-(trifluoromethyl)-6,7-dihydro-4H-indazol-4-ol] | > 7.00 | > 7.00 | 6.00 to 7.00 | 12 |
| O[C@H]1c2c(C(F)(F)F)nn(CCOC3CC3(F)F)c2CCC1(F)F (stereo partly drawn) [Example 25, (4S)-1-[2-(2,2-difluorocyclopropoxy)ethyl]-5,5-difluoro-3-(trifluoromethyl)-4,5,6,7-tetrahydro-1H-indazol-4-ol] | < 6.00 | < 6.00 |  |  |
| O[C@H]1c2c(C(F)(F)F)nn(CCSC(F)(F)F)c2CCC1(F)F [Example 7, (4S)-5,5-difluoro-3-(trifluoromethyl)-1-[2-(trifluoromethylsulfanyl)ethyl]-6,7-dihydro-4H-indazol-4-ol] | > 7.00 | > 7.00 | 6.00 to 7.00 | 5 |
| O=S1(=O)CC(Cn2nc(C(F)(F)F)c3c2CCC(F)(F)[C@H]3O)C1 [Example 46, (4S)-1-[(1,1-dioxothietan-3-yl)methyl]-5,5-difluoro-3-(trifluoromethyl)-6,7-dihydro-4H-indazol-4-ol] | 6.00 to 7.00 | 6.00 to 7.00 | 6.00 to 7.00 | 2 |
| O[C@H]1c2c(C(F)(F)F)nn(CC3CC3)c2CCC1(F)F [Example 10, (4S)-1-(cyclopropylmethyl)-5,5-difluoro-3-(trifluoromethyl)-6,7-dihydro-4H-indazol-4-ol] | < 6.00 | < 6.00 |  |  |
| O[C@H]1c2c(C(F)(F)F)nn(CC3CC3(F)F)c2CCC1(F)F (single isomer, unassigned) [23/24 DIAST-1] | 6.00 to 7.00 | 6.00 to 7.00 | < 6.00 | 6 |
| CC(CCn1nc(C#N)c2c1CCC(F)(F)[C@H]2O)C(F)(F)F (stereo partly drawn) [Example 49, (4S)-5,5-difluoro-4-hydroxy-1-(4,4,4-trifluoro-3-methylbutyl)-6,7-dihydro-4H-indazole-3-carbonitrile] | 6.00 to 7.00 | 6.00 to 7.00 | < 6.00 | 7 |
| O[C@H]1c2c(C(F)(F)F)nn([C@H]3CC[C@H](C(F)(F)F)CC3)c2CCC1(F)F [Example 37, (4S)-5,5-difluoro-3-(trifluoromethyl)-1-[4-(trifluoromethyl)cyclohexyl]-6,7-dihydro-4H-indazol-4-ol] | < 6.00 | < 6.00 |  |  |
| O[C@H]1c2c(C(F)(F)F)nn(CCC3(C(F)(F)F)CC3)c2CCC1(F)F [Example 5, (4S)-5,5-difluoro-3-(trifluoromethyl)-1-[2-[1-(trifluoromethyl)cyclopropyl]ethyl]-6,7-dihydro-4H-indazol-4-ol] | 6.00 to 7.00 | 6.00 to 7.00 | < 6.00 | 18 |
| O[C@H]1c2c(C(F)(F)F)nn(C3CCC(F)(F)CC3)c2CCC1(F)F [Example 36, (4S)-1-(4,4-difluorocyclohexyl)-5,5-difluoro-3-(trifluoromethyl)-6,7-dihydro-4H-indazol-4-ol] | 6.00 to 7.00 | 6.00 to 7.00 |  |  |
| O[C@H]1c2c(C(F)(F)F)nn(CC3CC3(F)F)c2CCC1(F)F (single isomer, unassigned) [23/24 DIAST-2] | 6.00 to 7.00 | 6.00 to 7.00 | < 6.00 | 10 |
| CC(C#N)CCn1nc(C(F)(F)F)c2c1CCC(F)(F)[C@H]2O (stereo partly drawn) [Example 3, 4-[(4S)-5,5-difluoro-4-hydroxy-3-(trifluoromethyl)-6,7-dihydro-4H-indazol-1-yl]-2-methylbutanenitrile] | 6.00 to 7.00 | 6.00 to 7.00 | 6.00 to 7.00 | 1 |
| CO[C@H]1c2c(C(F)(F)F)nn(CCCC(F)(F)F)c2CCC1(F)F [Example 47, (4S)-5,5-difluoro-4-methoxy-1-(4,4,4-trifluorobutyl)-3-(trifluoromethyl)-6,7-dihydro-4H-indazole] | < 6.00 | < 6.00 |  |  |
| CCCCn1nc(C(F)(F)F)c2c1CCC(F)(F)[C@H]2O [Example 39, (4S)-1-butyl-5,5-difluoro-3-(trifluoromethyl)-6,7-dihydro-4H-indazol-4-ol] | 6.00 to 7.00 | 6.00 to 7.00 | < 6.00 | >39 |
| O[C@H]1c2c(C(F)(F)F)nn(CCC3CC3(F)F)c2CC1(F)F (stereo partly drawn) [Example 58, (4S)-1-[2-(2,2-difluorocyclopropyl)ethyl]-5,5-difluoro-3-(trifluoromethyl)-4,6-dihydrocyclopenta[c]pyrazol-4-ol] | > 7.00 | > 7.00 | 6.00 to 7.00 | 3 |
| OC(CCn1nc(C(F)(F)F)c2c1CCC(F)(F)[C@H]2O)C(F)(F)F (stereo partly drawn) [Example 16, (4S)-5,5-difluoro-1-(4,4,4-trifluoro-3-hydroxybutyl)-3-(trifluoromethyl)-6,7-dihydro-4H-indazol-4-ol] | 6.00 to 7.00 | 6.00 to 7.00 | < 6.00 | 22 |
| O[C@H]1c2c(C(F)(F)F)nn(CCCC(F)F)c2CCC1(F)F [Example 31, (4S)-1-(4,4-difluorobutyl)-5,5-difluoro-3-(trifluoromethyl)-6,7-dihydro-4H-indazol-4-ol] | 6.00 to 7.00 | 6.00 to 7.00 | < 6.00 | 7 |
| COCCCn1nc(C(F)(F)F)c2c1CCC(F)(F)[C@H]2O [Example 9, (4S)-5,5-difluoro-1-(3-methoxypropyl)-3-(trifluoromethyl)-6,7-dihydro-4H-indazol-4-ol] | < 6.00 | < 6.00 |  |  |
| O[C@H]1c2c(C(F)(F)F)nn(C[C@H]3C[C@H](F)C3)c2CCC1(F)F [Example 45, (4S)-5,5-difluoro-1-[(3-fluorocyclobutyl)methyl]-3-(trifluoromethyl)-6,7-dihydro-4H-indazol-4-ol] | 6.00 to 7.00 | < 6.00 |  |  |
